{"source": "patent US20170106058A1", "about": "“PHARMACEUTICAL COMPOSITION AGAINST CHRONIC BACTERIAL INFECTIONS” (Lysando AG, priority 2014, published 2017)", "key": {"[1]": {"tested_on": "P. aeruginosa PA14 persisters", "test": "Persister killing assay, isolated persister fraction of P. aeruginosa PA14", "assay_type": "cell-based", "experimental": "(§1) Persister killing—Planktonic persister cells were isolated from a stationary phase culture as described e.g. in Chen et al., 2011(Chen X, Zhang M, Zhou C, Kallenbach N R, Ren D. 2011. Control of bacterial persister cells by Trp/Arg-containing antimicrobial peptides. Appl Environ Microbiol 77:4878-4885.). Briefly, an overnight culture of P. aeruginosa PA14 and PA1255 (a cystic fibrosis isolate) was inoculated each in 50 ml 1:20 Trypticase Soy Broth (TSB). After 48 h of growth at 37° C., the culture was treated with ofloxacin at a final concentration of 10 μg/ml (5× MIC) for 5 hours at 37° C., while shaking at 200 rpm. The persister cells surviving this antibiotic treatment were isolated by centrifugation (5250 g, 15 min, 4° C.) and the cell pellet was washed twice with 20 mM HEPES buffer. Prior to treatment, cells were resuspended in the same volume of 20 mM HEPES buffer. A persister killing assay was performed as described e.g. by De Groote et al., 2009 (De Groote V N, Verstraeten N, Fauvart M, Kint C I, Verbeeck A M, Beullens S, Cornelis P, Michiels J. 2009. Novel persistence genes in Pseudomonas aeruginosa identified by high-throughput screening. FEMS Microbiol Lett 297:73-79). Briefly, a volume of 100 μl of the isolated persister fraction was mixed with polypeptides comprising peptidoglycan hydrolase or ciprofloxacin (final concentrations of 10× or 30× MIC against the respective strains), in the absence or presence of 0.5 mM EDTA-Na2 (final concentration) up to a final volume of 200 μl. Control treatments with 20 mM HEPES buffer, 0.5 mM EDTA or ofloxacin (30×and 10× MIC) were performed in parallel. The mixtures were shaken (200 rpm) for lh at 37° C. Treated persisters where washed twice with 20 mM HEPES buffer and appropriate dilutions were plated on TSB agar plates and incubated at 37° C. The number of persisters was determined after 72 h incubation to allow complete resuscitation of all surviving persisters. Each experiment was independently repeated at least 3 times.\n(§2) Planktonic persister cells were isolated from a stationary-phase culture as described previously (Liebens V, Defraine V, Van der Leyden A, De Groote V N, Fierro C, Beullens S, Verstraeten N, Kint C, Jans A, Frangipani E, Visa P, Marchal K, Versées W, Fauvart M, Michiels J. 2014. A putative de-N-acetylase of the PIG-L superfamily affects fluoroquinolone tolerance in Pseudomonas aeruginosa. Pathogen. Dis. 71:39-54.) with minor modifications. An overnight culture of P. aeruginosa PA14, PAl255 (a cystic fibrosis isolate), Escherichia coil UTI-89 (isolate from chronic urinary tract infection) and Acinetobacter baumannii RUH134 (reference strain for global clone 2) was diluted 100×in 50 ml 1:20 Trypticase soy broth (TSB). After overnight growth at 37° C., the cultures were treated with either 10 μg/ml ofloxacin (P. aeruginosa strains), 200 μg/ml tobramycin (A. baumannii) or 200 μg/ml amikacin (E. coli) for 5 h at 37° C., while shaking at 200 rpm. The antibiotic concentrations were chosen to allow only persister cells to survive, based on previous time-kill curves. The persister fractions were isolated by centrifugation (5,250× g for 15 min at 4° C.), and the cell pellet was washed twice with 20 mM HEPES (pH 7.4). Prior to treatment, the cells were resuspended in a ten-fold reduced volume of 20 mM HEPES (pH 7.4) to concentrate the persisters.\nA persister killing assay was performed as described previously (Liebens et al., 2014), with minor modifications. […]"}, "[2]": {"tested_on": "P. aeruginosa PAl255 persisters", "test": "Persister killing assay, isolated persister fraction of P. aeruginosa PAl255 (cystic fibrosis isolate)", "assay_type": "cell-based", "experimental": "as §1, with “Briefly, a volume of 100 μl of the isolated persister fraction was mixed with polypeptides comprising peptidoglycan hydrolase or ciprofloxacin (final concentrations of 10× or 30× MIC against the respective strains), in the absence or presence of 0.5 mM EDTA-Na2 (final concentration) up to a final volume of 200 μl. Control treatments with 20 mM HEPES buffer, 0.5 mM EDTA or ofloxacin (30×and 10× MIC) were performed in parallel. The mixtures were shaken (200 rpm) for lh at 37° C. Treated persisters where washed twice with 20 mM HEPES buffer and appropriate dilutions were plated on TSB agar plates and incubated at 37° C.” left out, “Each experiment was independently repeated at least 3 times.” left out"}, "[3]": {"tested_on": "E. coli UTI-89 persisters", "test": "Persister killing assay, isolated persister fraction of E. coli UTI-89 (chronic urinary tract infection isolate)", "assay_type": "cell-based, Escherichia coli", "settings": "10× MIC", "excerpt": "as §2\nA persister killing assay was performed as described previously (Liebens et al., 2014), with minor modifications. A volume of 100 μl of the isolated persister fraction was mixed with either the polypeptide according to SEQ ID NO: 124, 125, 126 or ciprofloxacin (final concentrations of 10× or 30× MIC against the respective strains), in the absence or presence of 0.5 mM EDTA-Na2 (final concentration) up to a final volume of 200 μl. Control treatments with 20 mM HEPES (pH 7.4), 0.5 mM EDTA, or ofloxacin/tobramycin/amikacin (30× and 10× MIC) were performed in parallel. […] The number of persisters was determined after 72 h of incubation to allow for complete resuscitation of all surviving persisters."}, "[4]": {"settings": "10× and 30× MIC, with and without 0.5 mM EDTA"}}}
{"molecule": "O=C([O-])CN(CCN(CC(=O)[O-])CC(=O)O)CC(=O)O.[Na+].[Na+]", "note": "[EDTA, reference compound]", "values": [{"measurement": "bactericidal activity against isolated persisters", "setting": "[1]; 0.5 mM EDTA alone", "result": "did not affect the persisters"}, {"measurement": "bactericidal activity against isolated persisters", "setting": "[2]; 0.5 mM EDTA alone", "result": "did not affect the persisters"}]}
{"molecule": "O=C(O)c1cn(C2CC2)c2cc(N3CCNCC3)c(F)cc2c1=O", "note": "[ciprofloxacin, reference compound]", "values": [{"measurement": "bactericidal activity against isolated persisters", "setting": "[1]; [4]", "result": "did not affect the persisters"}, {"measurement": "bactericidal activity against isolated persisters", "setting": "[2]; [4]", "result": "did not affect the persisters"}, {"measurement": "killing of persisters", "setting": "[3]; with and without 0.5 mM EDTA", "result": "did not completely kill persisters"}]}
{"molecule": "SEQ ID NO: 124: polypeptide comprising a fusion of Sarcotoxin IA (SEQ ID NO: 48) and KZ144 (SEQ ID NO: 11), active against vegetative cells of E. coli (protein, SarcotoxinIA-KZ144his) MKFFRKLKKSVKKRAKEFFKKPRVIGVSIPFGSKVLRKGDRGDEVCQLQTLLNLCGYDVGKPDGIFGNNTFNQVVKFQKDNCLDSDGIVGKNTWAELFSKYSPPIPYKTIPMPTANKSRAAATPVMNAVENATGVRSQLLLTFASIESAFDYEIKAKTSSATGWFQFLTGTWKTMIENYGMKYGVLTDPTGALRKDPRISALMGAELIKENMNILRPVLKREPTDTDLYLAHFFGPGAARRFLTTGQNELAATHFPKEAQANPSIFYNKDGSPKTIQEVYNLMDGKVAAHRKLEHHHHHH", "values": [{"measurement": "effect on persisters", "setting": "[1]; 30× MIC, with 0.5 mM EDTA", "result": "complete eradication"}, {"measurement": "reduction of the number of persisters", "setting": "[1]; 30× MIC, with 0.5 mM EDTA", "result": "approximately 5 log units"}, {"measurement": "reduction of the number of persisters in comparison to the 0.5 mM EDTA control", "setting": "[1]; 30× MIC, without EDTA", "result": "approximately 2.3 log units"}, {"measurement": "killing of persisters", "setting": "[3]; with 0.5 mM EDTA", "result": "completely eradicated"}, {"measurement": "killing of persisters", "setting": "[3]; without 0.5 mM EDTA", "result": "did not completely kill persisters"}]}
